Assays:
[1] = test system: magnocellular neurons of the paraventricular nucleus (PVN); assay: NMDA agonist excitotoxicity after PVN microinjection, histological count of surviving magnocellular neurons, Sprague-Dawley rats; type: in vivo, rat; conditions: counted three days later
Procedure: Experiments were performed on male Sprague-Dawley rats (150-525 g. Charles River, P.Q., Canada). The animals were anesthetized with sodium pentobarbitol (65 mg/kg, ip), placed in a stereotaxic frame and the skull exposed, and a small burr hole drilled in the skull such that a cannula electrode (tip diameter 150 μm) could be advanced into the region of the PVN according to the coordinates of Paxinos and Watson (−0.9 mm Bregma, 0.5 mm lateral, 7.5 mm ventral) (Paxinos and Watson, The Rat Brain in Stereotaxic Coordinates, Academic Press, New York (1982)). Each animal received a 1.0 μl microinjection to each PVN (2×0.5 μl) according to one of the following protocols, saline/saline, saline/NMDA, 4-AP/saline, 4-AP/NMDA, angiotensin-II/saline, angiotensin-II/NMDA, saralasin (SAR)/NMDA. The incision was then closed and the animal received the analgesic Buprenorphin (0.03 mg/kg, SQ) to aid postoperative recovery. Animals were allowed to recover for three days after which they were overdosed with sodium pentobarbitol (100 mg/kg) and perfused with 0.9% saline followed by 10% formalin through the left ventricle of the heart. The brain was removed, placed in formalin overnight at […]. The brain was then cut into a smaller block contained PVN and stored in a 30% sucrose, 0.1 M phosphate buffer at 4° C. for at least two days.
The blocks were mounted, covered with Tissue-Tek O.C.T. compound (Sakura) and flash frozen in 2-methyl butane (cooled by dry ice) for 45 seconds. Using the Frigocut 280 (Reichart Jung), 20 μm coronal sections were cut through the area of PVN. These sections were mounted and cresyl violet stained. The histological locations of the microinjection sites were verified at the light microscope level by an observer unaware of the experimental conditions. Only those animals with microinjection within the boundaries of PVN were further analyzed.
Magnocellular neurons were differentiated from parvocellular neurons and cellular material by specific morphological characteristics (Sawchenko and Swanson, J. Comp. Neuro. 218:121-44 (1983)). In addition to the anatomical location of the neuron within PVN, morphological size was used to further characterize neuronal type. Neurons with soma diameter of approximately 20-25 μm and intact nuclei were characterized as viable magnocellular neurons. Neurons with soma diameter of between 15 and 20 μm were not included in the study, as they could not be reliably classified as belonging to either subpopulation. Histological sections were viewed under high magnification (40×) at the light microscope level and a grid was superimposed over each area of PVN. […] Comparative analyses were performed whereby neurons were counted in 20 μm sections following the initial emergence of PVN. […]

[2] = test system: parvocellular neurons of the paraventricular nucleus (PVN); assay: NMDA agonist excitotoxicity after PVN microinjection, histological count of surviving parvocellular neurons, Sprague-Dawley rats; type: in vivo, rat
Procedure: Experiments were performed on male Sprague-Dawley rats (150-525 g. Charles River, P.Q., Canada). The animals were anesthetized with sodium pentobarbitol (65 mg/kg, ip), placed in a stereotaxic frame and the skull exposed, and a small burr hole drilled in the skull such that a cannula electrode (tip diameter 150 μm) could be advanced into the region of the PVN according to the coordinates of Paxinos and Watson (−0.9 mm Bregma, 0.5 mm lateral, 7.5 mm ventral) (Paxinos and Watson, The Rat Brain in Stereotaxic Coordinates, Academic Press, New York (1982)). Each animal received a 1.0 μl microinjection to each PVN (2×0.5 μl) according to one of the following protocols, saline/saline, saline/NMDA, 4-AP/saline, 4-AP/NMDA, angiotensin-II/saline, angiotensin-II/NMDA, saralasin (SAR)/NMDA. […]
The blocks were mounted, covered with Tissue-Tek O.C.T. compound (Sakura) and flash frozen in 2-methyl butane (cooled by dry ice) for 45 seconds. […] Only those animals with microinjection within the boundaries of PVN were further analyzed.
Magnocellular neurons were differentiated from parvocellular neurons and cellular material by specific morphological characteristics (Sawchenko and Swanson, J. Comp. Neuro. 218:121-44 (1983)). […] Comparative analyses were performed whereby neurons were counted in 20 μm sections following the initial emergence of PVN. […]

[3] = test system: outwardly rectifying whole-cell K+ current of isolated PVN neurons; assay: Voltage clamp recordings from dissociated PVN neurons, voltage ramps; type: cell-based, rat; conditions: voltage ramps 100 mV/sec
Procedure: Male, Sprague-Dawley rats (150-250 g, Charles River, P.Q., Canada) were killed by decapitation, the brain was removed quickly from the skull and immersed in cold (1-4° C.) artificial cerebrospinal fluid (aCSF). The brain was blocked and 400 μm hypothalamic slices, which included the PVN, were prepared as described in Bains and Ferguson (NeuroReport 8(9-10):2101-05 (1997)). Slices were incubated in oxygenated aCSF (95% O2, 5% CO2) for at least 90 minutes at room temperature. Twenty minutes prior to recording, the slice was transferred into a modified interface type recording chamber and continuously perfused with aCSF at a rate of 1 ml/min.
For isolated neurons, pipettes of 1-4 MΩ were filled with a pipette solution containing (in mM): potassium-gluconate (130), EGTA(10), MgCl2 (1), HEPES (10), Na2ATP (4), GTP (0.1), adjusted to pH 7.2 with KOH. The standard bath solution contained (inmM): NaCl (140), KCl (5), MgCl2 (1), CaCl2 (2), HEPES (10), glucose (10) and […] tetrodotoxin (TTX) (Alamone Labs, Jerusalem, Israel). Signals were amplified, collected and processed using an Axopatch 200B (Axon Instruments) amplifier, a 1401plus A-D interface and Signal software from C.E.D. […]

[4] = test system: magnocellular neurons of the paraventricular nucleus (PVN); assay: NMDA agonist excitotoxicity after PVN microinjection, surviving magnocellular neurons, spontaneously hypertensive rats; type: in vivo, rat
Description: (§1) To determine whether magnocellular neurons in hypertensive rats with increased central angiotensin-II lose their resistance to excitotoxins as a consequence of endogenous angiotensin-II inhibiting the transient K^+ conductance, NMDA agonist or vehicle control was microinjected into PVN and surviving neurons were counted three days later. Following such treatment, a similar loss of parvocellular neurons to that found in normotensive animals was observed (82±2% surviving), while the resistance of magnocellular neurons was no longer observed in these animals (71±5% surviving) (see FIG. 3 for specific N values). To confirm that angiotensin-II was responsible for this loss of resistance, the NMDA agonist was next microinjected into PVN of spontaneously hypertensive rats immediately following the angiotensin-II receptor antagonist saralasin. […] These findings provide the first direct evidence that elevated angiotensin-II concentrations in the central nervous system of hypertensive animals may contribute to the increased susceptibility for stroke and that these actions can be prevented by central angiotensin-II receptor blockade. […]
(§2) The blocks were mounted, covered with Tissue-Tek O.C.T. compound (Sakura) and flash frozen in 2-methyl butane (cooled by dry ice) for 45 seconds. […] Only those animals with microinjection within the boundaries of PVN were further analyzed. […]

[5] = test system: parvocellular neurons of the paraventricular nucleus (PVN); assay: NMDA agonist excitotoxicity after PVN microinjection, surviving parvocellular neurons, spontaneously hypertensive rats; type: in vivo, rat; conditions: NMDA agonist alone into PVN, counted three days later
Description: as §1, §2

[6] = Li et al., Brain Res. Bull. 30:33-39 (1993); cited from earlier work
[7] = substance microinjected into PVN prior to NMDA agonist
[8] = substance microinjected into PVN alone

Nc1ccncc1 [4-AP, 4-aminopyridine]
proportion of magnocellular neurons surviving [1, 7]: 78.9±4.6% | effect of 4-AP on parvocellular neuron population ([2]; 4-AP pretreatment before NMDA agonist microinjection): no significant effect | proportion of parvocellular neurons surviving ([2]; NMDA agonist microinjection, PVN treated with 4-AP): 80.9±3.0% | inhibition of outwardly rectifying whole-cell current ([3]; 100 μM): inhibited

N[C@@H](C(=O)O)c1nnn[nH]1 [NMDA agonist, D-1-tetrazol-5yl-glycine]
proportion of magnocellular neurons surviving [1, 8]: 100.0±2.4% | magnocellular neurons surviving ([4]; hypertensive rats, NMDA agonist alone into PVN, counted three days later): 71±5% | parvocellular neurons surviving [5]: 82±2%

CNCC(=O)N[C@@H](CCCN=C(N)N)C(=O)N[C@H](C(=O)N[C@@H](Cc1ccc(O)cc1)C(=O)N[C@H](C(=O)N[C@@H](Cc1cnc[nH]1)C(=O)N1CCC[C@H]1C(=O)N[C@@H](C)C(=O)O)C(C)C)C(C)C [saralasin, Sar^1Ala^8-angiotensin-II]
effect on cell viability ([4]; SHR PVN, saralasin by itself): no effect | crossing of the blood-brain barrier [6]: does not cross the blood-brain barrier

a-dendrotoxin [a-DTX]
inhibition of outwardly rectifying whole-cell current, compared with 100 μM 4-AP ([3]; 1 μM): to an equal degree

angiotensin-II: octapeptide hormone, end product of the RAS, powerful arterial vasoconstrictor
proportion of magnocellular neurons surviving [1, 8]: 97.4±4.2% | proportion of magnocellular neurons surviving [1, 7]: 80.8±3.75%
